# Data reported in patent publication US9708311B2, “Benzimidazole derivatives as EP4 antagonists” (BAYER PHARMA AKTIENGESELLSCHAFT, priority 2012, dated 2017).
# Biological target: human EP4 receptor (Homo sapiens (Human), UniProt P35408)
# Assay: Test for antagonism of the human EP4 receptor signal (cAMP HTRF)
# Assay type: cell-based
# Settings: cells expressing hEP4, PGE2 at EC80 (0.4 nM), cAMP TR-FRET; read-out: Antagonism hEP4 IC50
# From the text: The binding of the agonist prostaglandin E2 (PGE2) to the EP4 subtype of human hPGE2-R (hEP4-R) induces the activation of membrane-bound adenylate cyclases and thus the formation of cAMP. In the presence of the phosphodiesterase inhibitor IBMX, this cAMP accumulates intracellularly and is employed in a competitive detection procedure after cell lysis. In this procedure, it competes with a fluorescence-labelled cAMP (cAMP-d2) for binding to an Eu cryptate-labelled anti-cAMP antibody. In the absence of cellular cAMP, a complex is formed between the Eu cryptate-labelled anti-cAMP antibody and the cAMP-d2 molecule, which after excitation at 337 nm makes possible an energy transfer based on FRET (fluorescence resonance energy transfer) to the cAMP-d2 tracer and leads to a long-lasting fluorescence signal (emission at 665 and 620 nm). This signal is time-resolved, i.e. measured in a suitable measuring apparatus after decay of the background fluorescence (time resolved; TR-FRET). The wave ratio determination (emission 665 nm/emission 620 nm*10000) moreover makes it possible to standardize individual measurement differences in the added amounts of the detection reagents.
# By means of prostaglandin E2 administration and increase in the intracellular cAMP, a lowering of the FRET signal occurs, which in the case of an antagonistic substance action increases again.
# A further 20 min at room temperature later, the cell lysate is measured according to the manufacturer's instructions in a TR-FRET-suitable measuring apparatus (compare cAMP HTRF assay kit: Cisbio International 62AM6PEJ high range)
# Sequence of human EP4 receptor (P35408 whole entry): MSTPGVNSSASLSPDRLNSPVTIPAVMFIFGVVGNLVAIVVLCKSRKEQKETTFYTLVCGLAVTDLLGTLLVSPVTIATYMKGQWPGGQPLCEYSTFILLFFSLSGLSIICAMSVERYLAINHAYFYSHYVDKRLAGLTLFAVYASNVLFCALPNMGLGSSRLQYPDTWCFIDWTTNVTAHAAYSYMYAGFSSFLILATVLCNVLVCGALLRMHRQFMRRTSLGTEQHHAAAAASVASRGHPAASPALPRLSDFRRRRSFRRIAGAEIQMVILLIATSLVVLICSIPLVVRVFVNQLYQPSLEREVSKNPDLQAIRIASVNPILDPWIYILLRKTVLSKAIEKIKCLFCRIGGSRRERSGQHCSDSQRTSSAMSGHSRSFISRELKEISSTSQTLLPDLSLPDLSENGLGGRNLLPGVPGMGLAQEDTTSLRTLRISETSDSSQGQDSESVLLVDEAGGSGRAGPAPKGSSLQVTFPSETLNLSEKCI
row,Structure (SMILES),IC50 [nM]
1,"CCn1c2ccccc2c2cc(-c3nc4cc(C(=O)O)ccc4n3C[C@H](O)CO)ccc21 [Example 138, 1-[(2S)-2,3-Dihydroxypropyl]-2-(9-ethyl-9H-carbazol-3-yl)-1H-benzimidazole-5-carboxylic acid]",567
2,"CCn1c2ccccc2c2cc(-c3nc4cc(C(=O)NCC(F)(F)F)ccc4n3CCOC)ccc21 [Example 77, 2-(9-Ethyl-9H-carbazol-3-yl)-1-(2-methoxyethyl)-N-(2,2,2-trifluoroethyl)-1H-benzimidazole-5-carboxamide]",49.2
3,"CCn1c2ccccc2c2cc(-c3nc4cc(C(=O)O)ccc4n3CC(O)C3CC3)ccc21 (centres unmarked) [Example 137, 1-(2-Cyclopropyl-2-hydroxyethyl)-2-(9-ethyl-9H-carbazol-3-yl)-1H-benzimidazole-5-carboxylic acid]",18.6
4,"CCn1c2ccccc2c2cc(-c3nc4cc(C(C)(C)O)ccc4n3CCOC)ccc21 [Example 101, 2-[2-(9-Ethyl-9H-carbazol-3-yl)-1-(2-methoxyethyl)-1H-benzimidazol-5-yl]propan-2-ol]",989
5,"CCn1c2ccccc2c2cc(-c3nc4cc(C(=O)NS(=O)(=O)c5ccc(C)cc5)ccc4n3CCOC)ccc21 [Example 48, 2-(9-Ethyl-9H-carbazol-3-yl)-1-(2-methoxyethyl)-N-[(4-methylphenyl)sulphonyl]-1H-benzimidazole-5-carboxamide]",99.5
6,"CCn1c2ccccc2c2cc(-c3nc4cc(C(=O)N5CCOCC5)ccc4n3CCOC)ccc21 [Example 81, [2-(9-Ethyl-9H-carbazol-3-yl)-1-(2-methoxyethyl)-1H-benzimidazol-5-yl](morpholin-4-yl)-methanone]",123
7,"CCn1c2ccccc2c2cc(-c3nc4cc(C(=O)N5CCNC(=O)C5)ccc4n3CC3CC3)ccc21 [Example 28, 4-{[1-(Cyclopropylmethyl)-2-(9-ethyl-9H-carbazol-3-yl)-1H-benzimidazol-5-yl]carbonyl}-piperazin-2-one]",122
8,"CCn1c2ccccc2c2cc(-c3nc4cc(C(=O)O)ccc4n3CCCOC)ccc21 [Example 100, 2-(9-Ethyl-9H-carbazol-3-yl)-1-(3-methoxypropyl)-1H-benzimidazole-5-carboxylic acid]",158
9,"CCn1c2ccc(-c3nc4c(C)c(C(=O)O)ccc4n3CCOC)cc2c2cccc(Cl)c21 [Example 143, 2-(8-Chloro-9-ethyl-9H-carbazol-3-yl)-1-(2-methoxyethyl)-4-methyl-1H-benzimidazole-5-carboxylic acid]",5.19
10,"CCn1c2ccccc2c2cc(-c3nc4cc(C(=O)O)ccc4n3CC3CCCO3)ccc21 (centres unmarked) [Example 133, 2-(9-Ethyl-9H-carbazol-3-yl)-1-(tetrahydrofuran-2-ylmethyl)-1H-benzimidazole-5-carboxylic acid]",7
11,"CCn1c2ccccc2c2cc(-c3nc4cc(C(=O)NCCN(C)C)ccc4n3CCOC)ccc21 [Example 86, N-[2-(Dimethylamino)ethyl]-2-(9-ethyl-9H-carbazol-3-yl)-1-(2-methoxyethyl)-1H-benzimidazole-5-carboxamide]",245
12,"CCOC(=O)c1ccc2c(c1)nc(-c1ccc3c(c1)c1ccccc1n3CC)n2CCN1CCCC1 [Example 37, Ethyl 2-(9-ethyl-9H-carbazol-3-yl)-1-[2-(pyrrolidin-1-yl)ethyl]-1H-benzimidazole-5-carboxylate]",3780
13,"CCn1c2ccc(-c3nc4cc(C(=O)O)ccc4n3CCOC)cc2c2c(F)cccc21 [Example 11, 2-(9-Ethyl-5-fluoro-9H-carbazol-3-yl)-1-(2-methoxyethyl)-1H-benzimidazole-5-carboxylic acid]",6.36
14,"CCCn1c2ccccc2c2cc(-c3nc4cc(C(=O)O)ccc4n3CC3CC3)ccc21 [Example 120, 1-(Cyclopropylmethyl)-2-(9-propyl-9H-carbazol-3-yl)-1H-benzimidazole-5-carboxylic acid]",63
15,"CCn1c2ccccc2c2cc(-c3nc4cc(C(=O)NS(=O)(=O)C(C)(C)C)ccc4n3CCOC)ccc21 [Example 39, N-(tert-Butylsulphonyl)-2-(9-ethyl-9H-carbazol-3-yl)-1-(2-methoxyethyl)-1H-benzimidazole-5-carboxamide]",768
16,"CCn1c2ccccc2c2cc(-c3nc4cc(C(=O)O)ccc4n3CC3COC3)ccc21 [Example 123, 2-(9-Ethyl-9H-carbazol-3-yl)-1-(oxetan-3-ylmethyl)-1H-benzimidazole-5-carboxylic acid]",51.5
17,"CCn1c2ccccc2c2cc(-c3nc4cc(C(=O)NS(=O)(=O)c5ccccc5OC)ccc4n3CCOC)ccc21 [Example 52, 2-(9-Ethyl-9H-carbazol-3-yl)-1-(2-methoxyethyl)-N-[(2-methoxyphenyl)sulphonyl]-1H-benzimidazole-5-carboxamide]",35.9
18,"CCn1c2ccccc2c2cc(-c3nc4cc(-c5n[nH]c(=O)o5)ccc4n3CCOC)ccc21 [Example 106, 5-[2-(9-Ethyl-9H-carbazol-3-yl)-1-(2-methoxyethyl)-1H-benzimidazol-5-yl]-1,3,4-oxadiazol-2(3H)-one]",43.7

# Continued, values first:
row,IC50 [nM],Structure (SMILES)
1,143,"CCn1c2ccccc2c2cc(-c3nc4cc(C(=O)N5CC(O)C5)ccc4n3CC3CC3)ccc21 [Example 23, [1-(Cyclopropylmethyl)-2-(9-ethyl-9H-carbazol-3-yl)-1H-benzimidazol-5-yl](3-hydroxyazetidin-1-yl)methanone]"
2,87.2,"CCn1c2ccccc2c2cc(-c3nc4cc(C(=O)NS(=O)(=O)C5CC5)ccc4n3CCN(C)C)ccc21 [Example 74, N-(Cyclopropylsulphonyl)-1-[2-(dimethylamino)ethyl]-2-(9-ethyl-9H-carbazol-3-yl)-1H-benzimidazole-5-carboxamide]"
3,3640,"C=CCn1c(-c2ccc3c(c2)c2ccccc2n3CC)nc2cc(C(N)=O)ccc21 [Example 89, 1-Allyl-2-(9-ethyl-9H-carbazol-3-yl)-1H-benzimidazole-5-carboxamide]"
4,238,"CCn1c2ccccc2c2cc(-c3nc4cc(C(=O)NS(=O)(=O)CCc5cccc(Cl)c5)ccc4n3CCOC)ccc21 [Example 56, N-{[2-(3-Chlorophenyl)ethyl]sulphonyl}-2-(9-ethyl-9H-carbazol-3-yl)-1-(2-methoxyethyl)-1H-benzimidazole-5-carboxamide]"
5,8000,"CCOC(=O)c1ccc2c(c1)nc(-c1ccc3c(c1)c1ccccc1n3CC)n2C(C)C [Example 92, Ethyl 2-(9-ethyl-9H-carbazol-3-yl)-1-isopropyl-1H-benzimidazole-5-carboxylate]"
6,11.6,"CCn1c2ccccc2c2cc(-c3nc4c(F)c(C(=O)O)ccc4n3CC3CC3)ccc21 [Example 115, 1-(Cyclopropylmethyl)-2-(9-ethyl-9H-carbazol-3-yl)-4-fluoro-1H-benzimidazole-5-carboxylic acid]"
7,82.5,"CCn1c2ccccc2c2cc(-c3nc4cc(C(=O)O)ccc4n3CCN(C)C)ccc21 [Example 72, 1-[2-(Dimethylamino)ethyl]-2-(9-ethyl-9H-carbazol-3-yl)-1H-benzimidazole-5-carboxylic acid]"
8,103,"CCn1c2ccccc2c2cc(-c3nc4cc(C(=O)NCCOC)ccc4n3CC3CC3)ccc21 [Example 21, 1-(Cyclopropylmethyl)-2-(9-ethyl-9H-carbazol-3-yl)-N-(2-methoxyethyl)-1H-benzimidazole-5-carboxamide]"
9,68.3,"CCn1c2ccccc2c2cc(-c3nc4cc(C(=O)N5CCC5)ccc4n3CC3CC3)ccc21 [Example 80, Azetidin-1-yl[1-(cyclopropylmethyl)-2-(9-ethyl-9H-carbazol-3-yl)-1H-benzimidazol-5-yl]-methanone]"
10,2830,"CCn1c2ccccc2c2cc(-c3nc4cc(C(=O)O)c(OC)cc4n3CC3CC3)ccc21 [Example 102, 1-(Cyclopropylmethyl)-2-(9-ethyl-9H-carbazol-3-yl)-6-methoxy-1H-benzimidazole-5-carboxylic acid]"
11,239,"CCn1c2ccccc2c2nc(-c3nc4cc(C(=O)O)ccc4n3CCOC)ccc21 [Example 42, 2-(5-Ethyl-5H-pyrido[3,2-b]indol-2-yl)-1-(2-methoxyethyl)-1H-benzimidazole-5-carboxylic acid]"
12,133,"CCn1c2ccccc2c2cc(-c3nc4cc(C(=O)NS(=O)(=O)Cc5ccccc5OC(F)(F)F)ccc4n3CCOC)ccc21 [Example 65, 2-(9-Ethyl-9H-carbazol-3-yl)-1-(2-methoxyethyl)-N-{[2-(trifluoromethoxy)benzyl]-sulphonyl}-1H-benzimidazole-5-carboxamide]"
13,33.8,"O=C(O)c1ccc2c(c1)nc(-c1ccc3c(c1)c1ccccc1n3CC1CC1)n2CC1CC1 [Example 35, 1-(Cyclopropylmethyl)-2-[9-(cyclopropylmethyl)-9H-carbazol-3-yl]-1H-benzimidazole-5-carboxylic acid]"
14,6.42,"CCn1c2ccccc2c2cc(-c3nc4c(F)c(C(=O)O)ccc4n3CCOC)ccc21 [Example 114, 2-(9-Ethyl-9H-carbazol-3-yl)-4-fluoro-1-(2-methoxyethyl)-1H-benzimidazole-5-carboxylic acid]"
